Source: patent EP0664121A1, “Inhibition of ldl oxidation and atherosclerosis” (ELI LILLY AND COMPANY, priority 1993, dated 1995)

Tests used:
[1] = test system: Resident macrophages from the mouse peritoneal cavity; experiment: Macrophage-mediated oxidation (cellular modification) of LDL, TBAR values; format: cell-based; details: LDL 1 mg/ml, 24 hrs, media-alone value subtracted
Experimental: Resident macrophages from the mouse peritoneal cavity were plated at 1 x 10⁶ cells per well in F10 media without serum. […] The wells designated media alone represents LDL incubated overnight on the same plate with F10 media without cells. This value was subtracted from the TBAR values obtained in the presence of resident macrophages and reflects the extent of cellular modification of LDL.

[2] = test system: LDL; experiment: Thiobarbituric acid assay of copper-induced LDL peroxidation; format: biochemical; details: 250 µg LDL in 1 ml, 5 µM CuSO₄, 5-18 hrs at 37 degrees C
Experimental: The thiobarbituric acid assay as described by Schuh et al., (PNAS 75: 3173, 1978) and modified by Morel et al., (Lab Invest 55: 419, 1986) was used to determine the degree of inhibition of LDL peroxidation by estradiol and Compound A of the invention. A 1 ml solution containing 250 micrograms (µg) of LDL with either estradiol or Compound A of the invention in amounts varying from 1-30 µM is incubated for 5-18 hrs at 37 degrees C in the presence of 5 µM CuSO₄. Following incubation, 1 ml of 25% trichloroacetic acid and 1 ml of 1% thiobarbituric acid is added. All samples are boiled for 45 minutes and fluorescence is measured at 515 nm excitation and 553 nm emission wavelengths. (Compound A is a compound of formula 1 wherein R₁ and R₃ are hydrogen, and R₂ is 1-pyrrolidino).

Structure (SMILES) | TBAR Units ([1]; 1 µM compound) [TBAR Units] | TBAR Units ([1]; 2.5 µM compound) [TBAR Units] | TBAR Units ([1]; 5 µm compound) [TBAR Units] | TBAR Units ([2]; 1µM compound) [TBAR UNITS] | TBAR Units ([2]; 5µM compound) [TBAR UNITS] | TBAR Units ([2]; 25µM compound) [TBAR UNITS] | TBAR Units ([1]; 25 µM compound) [TBAR Units]
O=C(c1ccc(OCCN2CCCC2)cc1)c1c(-c2ccc(O)cc2)sc2cc(O)ccc12 [Compound A] | 129 | 75 | 30 | 142 | 109 | 78 | 
C[C@]12CC[C@@H]3c4ccc(O)cc4CC[C@H]3[C@@H]1CC[C@@H]2O [Estradiol, estradiol, reference compound] |  |  |  |  |  |  | 30
